The values that follow come from patent US8735364B2, “Antisense modulation of apolipoprotein B expression” (Genzyme Corporation, priority 2001, dated 2014).

Oligonucleotides are written 5' to 3', each unit as a sugar letter and its base; * is a phosphorothioate linkage, no mark a phosphodiester; rarer units and linkages stand in square brackets, end groups in braces. Plain capitals give the bases only. e = 2'-O-(2-methoxyethyl) (MOE); [5mC] = 5-methylcytosine; d = 2'-deoxy (DNA)

Series [1] has as its system mouse apolipoprotein B mRNA. The series is described as follows: Inhibition of mouse apolipoprotein B mRNA levels in primary hepatocytes, quantitative real-time PCR. To be noted: for %INHIB of mouse apolipoprotein B mRNA levels: averages from two experiments. Format: cell-based. Also noted: %INHIB of mouse apolipoprotein B mRNA levels: concentration or dose not given beside the values. The protocol:
Primary mouse hepatocytes were prepared from CD-1 mice purchased from Charles River Labs (Wilmington, Mass.) and were routinely cultured in Hepatoyte Attachment Media (Gibco) supplemented with 10% Fetal Bovine Serum (Gibco/Life Technologies, Gaithersburg, Md.), 250 nM dexamethasone (Sigma), and 10 nM bovine insulin (Sigma). Cells were seeded into 96-well plates (Falcon-Primaria #3872) at a density of 10000 cells/well for use in RT-PCR analysis.
(§1) When cells reached 80% confluency, they were treated with oligonucleotide. For cells grown in 96-well plates, wells were washed once with 200 μL OPTI-MEM™-1 reduced-serum medium (Gibco BRL) and then treated with 130 μL of OPTI-MEM™-1 containing 3.75 μg/mL LIPOFECTIN™ (Gibco BRL) and the desired concentration of oligonucleotide. After 4-7 hours of treatment, the medium was replaced with fresh medium. Cells were harvested 16-24 hours after oligonucleotide treatment.
(§2) Quantitation of apolipoprotein B mRNA levels was determined by real-time quantitative PCR using the ABI PRISM™ 7700 Sequence Detection System (PE-Applied Biosystems, Foster City, Calif.) according to manufacturer's instructions. This is a closed-tube, non-gel-based, fluorescence detection system which allows high-throughput quantitation of polymerase chain reaction (PCR) products in real-time. As opposed to standard PCR, in which amplification products are quantitated after the PCR is completed, products in real-time quantitative PCR are quantitated as they accumulate. This is accomplished by including in the PCR reaction an oligonucleotide probe that anneals specifically between the forward and reverse PCR primers, and contains two fluorescent dyes. A reporter dye (e.g., JOE, FAM, or VIC, obtained from either Operon Technologies Inc., Alameda, Calif. or PE-Applied Biosystems, Foster City, Calif.) is attached to the 5′ end of the probe and a quencher dye (e.g., TAMRA, obtained from either Operon Technologies Inc., Alameda, Calif. or PE-Applied Biosystems, Foster City, Calif.) is attached to the 3′ end of the probe. When the probe and dyes are intact, reporter dye emission is quenched by the proximity of the 3′ quencher dye. During amplification, annealing of the probe to the target sequence creates a substrate that can be cleaved by the 5′-exonuclease activity of Taq polymerase. […] With each cycle, additional reporter dye molecules are cleaved from their respective probes, and the fluorescence intensity is monitored at regular intervals by laser optics built into the ABI PRISM™ 7700 Sequence Detection System. In each assay, a series of parallel reactions containing serial dilutions of mRNA from untreated control samples generates a standard curve that is used to quantitate the percent inhibition after antisense oligonucleotide treatment of test samples.
(§3) PCR reagents were obtained from PE-Applied Biosystems, Foster City, Calif. RT-PCR reactions were carried out by adding 25 μL PCR cocktail (1× TAQMAN™ buffer A, 5.5 mM MgCl2, 300 μM each of DATP, dCTP and dGTP, 600 μM of dUTP, 100 nM each of forward primer, reverse primer, and probe, 20 Units RNAse inhibitor, 1.25 Units AMPLITAQ GOLD™, and 12.5 Units MuLV reverse transcriptase) to 96 well plates containing 25 μL total RNA solution. The RT reaction was carried out by incubation for 30 minutes at 48° C. Following a 10 minute incubation at 95° C. to activate the AMPLITAQ GOLD™, 40 cycles of a two-step PCR protocol were carried out: 95° C. for 15 seconds (denaturation) followed by 60° C. for 1.5 minutes (annealing/extension).
Gene target quantities obtained by real time RT-PCR are normalized using either the expression level of GAPDH, a gene whose expression is constant, or by quantifying total RNA using RiboGreen™ (Molecular Probes, Inc. Eugene, Oreg.). GAPDH expression is quantified by real time RT-PCR, by being run simultaneously with the target, multiplexing, or separately. Total RNA is quantified using RiboGreen™ RNA quantification reagent from Molecular Probes. […]
On the technique in general: Quantitative PCR measures a nucleic acid by following its amplification.

In series [2] the test system is human apolipoprotein B mRNA. The series is described as follows: Inhibition of human apolipoprotein B mRNA levels in HepG2 cells, quantitative real-time PCR. Format: cell-based. Further details: %INHIB of human apolipoprotein B mRNA levels: concentration or dose not given beside the values. The conditions noted are these: averages from two experiments. The protocol: The human hepatoblastoma cell line HepG2 was obtained from the American Type Culture Collection (Manassas, Va.). HepG2 cells were routinely cultured in Eagle's MEM supplemented with 10% fetal calf serum, non-essential amino acids, and 1 mM sodium pyruvate (Gibco/Life Technologies, Gaithersburg, Md.). Cells were routinely passaged by trypsinization and dilution when they reached 90% confluence. Cells were seeded into 96-well plates (Falcon-Primaria #3872) at a density of 7000 cells/well for use in RT-PCR analysis.
as §1, §2, §3
Gene target quantities obtained by real time RT-PCR are normalized using either the expression level of GAPDH, a gene whose expression is constant, or by quantifying total RNA using RiboGreen™ (Molecular Probes, Inc. Eugene, Oreg.). GAPDH expression is quantified by real time RT-PCR, by being run simultaneously with the target, multiplexing, or separately. […]

As to “147499 (antisense e[5mC]*eT*eG*e[5mC]*eA*dG*dG*dG*d[5mC]*dG*dT*d[5mC]*dA*dG*dT*eG*eA*e[5mC]*eA*eA) [compound 147499]”, in series [1], the “%INHIB of mouse apolipoprotein B mRNA levels” value came out at 29%.
On the same count and under the same terms, the result for “147501 (antisense e[5mC]*eT*eT*eG*eG*dT*dT*dA*dA*dA*d[5mC]*dT*dA*dA*dT*eG*eG*eT*eG*e[5mC]) [compound 147501]” reads 18%; that for “147502 (antisense eA*eT*eG*eG*eG*dA*dG*d[5mC]*dA*dT*dG*dG*dA*dG*dG*eT*eT*eG*eG*e[5mC]) [compound 147502]”, 16%.
As for “147503 (antisense eA*eA*eT*eG*eG*dA*dT*dG*dA*dT*dG*dA*dA*dA*d[5mC]*eA*eG*eT*eG*eG) [compound 147503]”, the “%INHIB of mouse apolipoprotein B mRNA levels” value in series [1] worked out at 26%.
For “147505 (antisense eG*eG*eA*eA*eG*dT*dG*dA*dG*dA*d[5mC]*dT*dT*dT*d[5mC]*eT*eA*eA*eG*e[5mC]) [compound 147505]”, the “%INHIB of mouse apolipoprotein B mRNA levels” value in series [1] amounted to 76%.
With “147506 (antisense eA*eG*eG*eA*eA*dG*dG*dA*dA*d[5mC]*dT*d[5mC]*dT*dT*dG*eA*eT*eA*eT*eT) [compound 147506]”, the “%INHIB of mouse apolipoprotein B mRNA levels” value in series [1] turned out to be 58%.
The same measure, in the same setting: the same measure for “147507 (antisense eA*eT*eT*eG*eG*d[5mC]*dT*dT*d[5mC]*dA*dT*dT*dG*dG*d[5mC]*eA*eA*e[5mC]*eA*e[5mC]) [compound 147507]”: 81%.
As to “147759 (antisense eA*eG*eG*eT*eG*dA*dG*dG*dA*dA*dG*dT*dT*dG*dG*eA*eA*eT*eT*e[5mC]) [compound 147759]”, in series [1], the “%INHIB of mouse apolipoprotein B mRNA levels” value is on record as 19%.
With “147761 (antisense eG*eT*eT*e[5mC]*eA*dT*dG*dG*dA*dT*dT*d[5mC]*d[5mC]*dT*dT*e[5mC]*eA*eG*eG*eA) [compound 147761]”, the “%INHIB of mouse apolipoprotein B mRNA levels” value in series [1] was 45%.
In the case of “147762 (antisense eA*eT*eG*e[5mC]*eT*d[5mC]*d[5mC]*dA*dT*dT*d[5mC]*dT*d[5mC]*dA*d[5mC]*eA*eT*eG*e[5mC]*eT) [compound 147762]”, the “%INHIB of mouse apolipoprotein B mRNA levels” value in series [1] is 46%.
For “147763 (antisense eT*eG*e[5mC]*eG*eA*d[5mC]*dT*dG*dT*dG*dT*d[5mC]*dT*dG*dA*eT*eT*eT*e[5mC]*e[5mC]) [compound 147763]”, in series [1], the “%INHIB of mouse apolipoprotein B mRNA levels” value stood at 34%.
As for “147764 (antisense eG*eT*e[5mC]*e[5mC]*e[5mC]*dT*dG*dA*dA*dG*dA*dT*dG*dT*d[5mC]*eA*eA*eT*eG*e[5mC]) [compound 147764]”, the entries for the “Percent Inhibition of mouse apolipoprotein B mRNA levels” value (from here on “Percent Inhibition”) in series [1] (50 nM), in series [1] (150 nM) and in series [1] (300 nM) were 48%, 84% and 90%, respectively. In series [1], the “%INHIB of mouse apolipoprotein B mRNA levels” value came out at 97%.
Regarding “147765 (antisense eA*eG*eG*e[5mC]*e[5mC]*d[5mC]*dA*dG*dT*dT*d[5mC]*d[5mC]*dA*dT*dG*eA*e[5mC]*e[5mC]*e[5mC]*eT) [compound 147765]”, in series [1], the “%INHIB of mouse apolipoprotein B mRNA levels” value came to 59%.
“147766 (antisense eG*eG*eA*eG*e[5mC]*d[5mC]*d[5mC]*dA*d[5mC]*dG*dT*dG*d[5mC]*dT*dG*eA*eG*eA*eT*eT) [compound 147766]”: in series [1], the “%INHIB of mouse apolipoprotein B mRNA levels” value was 59%.
Take “147767 (antisense e[5mC]*eG*eT*e[5mC]*e[5mC]*dT*dT*dG*dA*dG*d[5mC]*dA*dG*dT*dG*e[5mC]*e[5mC]*e[5mC]*eG*eA) [compound 147767]”: in series [1], the “%INHIB of mouse apolipoprotein B mRNA levels” value is given as 5%.
On to “147768 (antisense e[5mC]*e[5mC]*e[5mC]*eA*eT*dA*dT*dG*dG*dA*dG*dA*dA*dA*dT*e[5mC]*e[5mC]*eT*eT*e[5mC]) [compound 147768]”, for which, in series [1], the “%INHIB of mouse apolipoprotein B mRNA levels” value came to 24%.
Regarding “147769 (antisense e[5mC]*eA*eT*eG*e[5mC]*d[5mC]*dT*dG*dG*dA*dA*dG*d[5mC]*d[5mC]*dA*eG*eT*eG*eT*e[5mC]) [compound 147769]”, the “Percent Inhibition” value was 3% in series [1] (50 nM), 14% in series [1] (150 nM) and 28% in series [1] (300 nM). The “%INHIB of mouse apolipoprotein B mRNA levels” value in series [1] is listed as 89%.
As to “147770 (antisense eG*eT*eG*eT*eT*dG*dA*dA*dT*d[5mC]*d[5mC]*d[5mC]*dT*dT*dG*eA*eA*eA*eT*e[5mC]) [compound 147770]”, the “%INHIB of mouse apolipoprotein B mRNA levels” value in series [1] is 67%.
On to “147771 (antisense eG*eG*eT*eA*eA*dA*dG*dT*dT*dG*d[5mC]*d[5mC]*d[5mC]*dA*dT*eG*eG*e[5mC]*eT*eG) [compound 147771]”, for which the “%INHIB of mouse apolipoprotein B mRNA levels” value in series [1] came out at 68%.
As to “147772 (antisense eG*eT*eT*eA*eT*dA*dA*dA*dG*dT*d[5mC]*d[5mC]*dA*dG*d[5mC]*eA*eT*eT*eG*eG) [compound 147772]”, the “%INHIB of mouse apolipoprotein B mRNA levels” value in series [1] worked out at 78%.
On to “147773 (antisense e[5mC]*eA*eT*e[5mC]*eA*dG*dA*d[5mC]*dG*dT*dG*dA*dT*dG*dT*eT*e[5mC]*e[5mC]*e[5mC]*eT) [compound 147773]”, for which, in series [1], the “%INHIB of mouse apolipoprotein B mRNA levels” value is reported as 85%.
Same read-out and setting: the same measure for “147774 (antisense eT*eG*eG*e[5mC]*eT*dA*dG*dT*dT*dT*d[5mC]*dA*dA*dT*d[5mC]*e[5mC]*e[5mC]*e[5mC]*eT*eT) [compound 147774]”: 84%; for “147775 (antisense e[5mC]*eT*eG*eT*e[5mC]*dA*dT*dG*dA*d[5mC]*dT*dG*d[5mC]*d[5mC]*d[5mC]*eT*eT*eT*eA*e[5mC]) [compound 147775]”: 52%.
For “147776 (antisense eG*e[5mC]*eT*eT*eG*dA*dA*dG*dT*dT*d[5mC]*dA*dT*dT*dG*eA*eG*eA*eA*eT) [compound 147776]”, the “Percent Inhibition” value was found to be 0% in series [1] (50 nM), 17% in series [1] (150 nM) and 44% in series [1] (300 nM). For the same substance, the “%INHIB of mouse apolipoprotein B mRNA levels” value in series [1] was determined as 92%.
With “147778 (antisense eT*e[5mC]*eA*eG*eA*dT*dA*dT*dA*d[5mC]*dA*dT*dT*dG*dG*e[5mC]*eT*eT*e[5mC]*eA) [compound 147778]”, the “%INHIB of mouse apolipoprotein B mRNA levels” value in series [1] is reported as 14%.
“147780 (antisense e[5mC]*e[5mC]*eG*e[5mC]*eA*dG*dG*dT*d[5mC]*d[5mC]*d[5mC]*dG*dG*dT*dG*eG*eG*eA*eA*eT) [compound 147780]”: the “%INHIB of human apolipoprotein B mRNA levels” value in series [2] turned out to be 40%.
Turning to “147781 (antisense eA*e[5mC]*e[5mC]*eG*eA*dG*dA*dA*dG*dG*dG*d[5mC]*dA*d[5mC]*dT*e[5mC]*eA*eG*e[5mC]*e[5mC]) [compound 147781]”, the “%INHIB of human apolipoprotein B mRNA levels” value in series [2] came to 35%.
